# Assay results from ChEMBL document CHEMBL1134998, “A novel synthesis of 7-aryl-8-fluoro-pyrrolo[1,2-a]pyrimid-4-ones as potent, stable GnRH receptor antagonists” (Bioorg Med Chem Lett, 2002).
# Target: T1, Gonadotropin-releasing hormone receptor (Homo sapiens, UniProt P30968)
# T1 sequence (P30968 whole entry): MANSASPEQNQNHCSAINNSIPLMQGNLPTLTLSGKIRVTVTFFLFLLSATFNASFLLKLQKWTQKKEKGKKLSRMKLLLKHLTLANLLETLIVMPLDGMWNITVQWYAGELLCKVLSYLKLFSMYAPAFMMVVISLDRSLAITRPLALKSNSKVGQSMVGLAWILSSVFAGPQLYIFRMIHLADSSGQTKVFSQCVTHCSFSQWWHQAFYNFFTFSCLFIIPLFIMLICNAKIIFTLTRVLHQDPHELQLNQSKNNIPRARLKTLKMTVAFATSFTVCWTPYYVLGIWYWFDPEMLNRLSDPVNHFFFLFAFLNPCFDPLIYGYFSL
# Assay: Binding affinity towards human Gonadotropin-releasing hormone receptor
row,SMILES,Ki [nM]
1,CCOC(=O)c1cn(Cc2ccccc2F)c2c(F)c(-c3cccc(OC)c3)c(CN(C)Cc3ccccc3)n2c1=O,2600
2,CCOC(=O)c1cn(Cc2ccccc2F)c2c(F)c(-c3cccc(OC)c3)c(CN(C)Cc3ccco3)n2c1=O,24000
3,CCOC(=O)c1cn(Cc2ccccc2F)c2c(F)c(-c3cccc(OC)c3)c(CN(C)CCc3ccccn3)n2c1=O,200
4,CCOC(=O)c1cn(Cc2ccccc2F)c2c(F)c(-c3ccc(OCC(C)C)cc3)c(CN(C)CCc3ccccn3)n2c1=O,9
5,CCOC(=O)c1cn(Cc2ccccc2F)c2c(F)c(-c3ccc(OCC(C)C)cc3)c(CN(C)Cc3ccccc3)n2c1=O,42
6,CCOC(=O)c1cn(Cc2ccccc2F)c2c(F)c(-c3ccc(OCC(C)C)cc3)c(CN(C)Cc3ccco3)n2c1=O,92
